The results in this text go back to patent US20230233569A1 (Revolution Medicines, Inc., priority 2020, published 2023).

Each structure is given as a SMILES string.

Test [1] relates to P70S6K (Thr389) phosphorylation (mTORC1) in MDA-MB-468 cells. Briefly: Cell based AlphaLISA assay, mTOR kinase cellular assay: inhibition of p-P70S6K (T389) in MDA-MB-468 cells. The settings on record: Homo sapiens, read-out: pIC50 for Inhibition of mTORC1 and mTORC2 Substarte Phosphorylation p-P70S6K-(T389) (converted). On the procedure: Cell Based AlphaLISA Assays for Determining IC50 For Inhibition of P-Akt (S473), P-4E-BP1 (T37/46), and P-P70S6K (T389) in MDA-MB-468 Cells
mTOR Kinase Cellular Assay
To measure functional activity of mTORC1 and mTORC2 in cells the phosphorylation of 4EBP1 (Thr37/46) and P70S6K (Thr389), and AKT1/2/3 (Ser473) was monitored using AlphaLisa SureFire Ultra Kits (Perkin Elmer). MDA-MB-468 cells (ATCC® HTB-132) were cultured in 96-well tissue culture plates and treated with compounds in the disclosure at concentrations varying from 0.017-1,000 nM for two to four hours at 37° C. Incubations were terminated by removal of the assay buffer and addition of lysis buffer provided with the assay kit. Samples were processed according to the manufacturer's instructions. The Alpha signal from the respective phosphoproteins was measured in duplicate using a microplate reader (Envision, Perkin-Elmer or Spectramax M5, Molecular Devices). Inhibitor concentration response curves were analyzed using normalized IC50 regression curve fitting with control based normalization.

The test system of test [2] is 4EBP1 (Thr37/46) phosphorylation (mTORC1) in MDA-MB-468 cells. Kind of test: Cell based AlphaLISA assay, mTOR kinase cellular assay: inhibition of p-4E-BP1 (T37/46) in MDA-MB-468 cells. As to conditions: Homo sapiens, read-out: pIC50 for Inhibition of mTORC1 and mTORC2 Substarte Phosphorylation p-4E-BP1-(T37/46) (converted). A digest of the protocol: (§1)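 MDA-MB-468 cells treated with compound at 0.017-1,000 nM for two to four hours at 37° C, then lysed. Phospho-AKT1/2/3 S473, 4EBP1 T37/46 and P70S6K T389 quantified by AlphaLISA SureFire Ultra in duplicate; IC50 from normalized regression with control-based normalization.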
For orientation: Alpha assays give light when donor and acceptor beads are brought close together.

Test [3] has as its system AKT1/2/3 (Ser473) phosphorylation (mTORC2) in MDA-MB-468 cells. Briefly: Cell based AlphaLISA assay, mTOR kinase cellular assay: inhibition of p-Akt (S473) in MDA-MB-468 cells. As to conditions: Homo sapiens, read-out: pIC50 for Inhibition of mTORC1 and mTORC2 Substarte Phosphorylation p-AKT1/2/3-(S473) (converted). A digest of the protocol:
as §1

In the case of `CO[C@H]1C[C@@H]2CC[C@@H](C)[C@@](O)(O2)C(=O)C(=O)N2CCCC[C@H]2C(=O)O[C@H]([C@H](C)C[C@@H]2CC[C@@H](OC(=O)NCc3cnc(N4CCN(c5ncc(C(=O)NCCOCCOCCOCCOCCC(=O)N6CCc7cc(Cn8nc(-c9ccc%10oc(N)nc%10c9)c9c(N)ncnc98)ccc7C6)cn5)CC4CO)nc3)[C@H](OC)C2)CC(=O)[C@H](C)/C=C(\C)[C@@H](O)[C@@H](OC)C(=O)[C@H](C)C[C@H](C)/C=C/C=C/C=C/1C` (stereo partly drawn) [Example 40], the results for the IC50 in test [1], in test [2] and in test [3] were not above 1 nM, not above 3.16 nM and 3.16 to 31.6 nM, respectively.
In the same order, the values of `CO[C@H]1C[C@@H]2CC[C@@H](C)[C@@](O)(O2)C(=O)C(=O)N2CCCC[C@H]2C(=O)O[C@H]([C@H](C)C[C@@H]2CC[C@@H](OC(=O)NCCOCCOCCOCCOCCC(=O)NCc3cnc(N4CCN(c5ncc(C(=O)N6CCc7cc(Cn8nc(-c9ccc%10oc(N)nc%10c9)c9c(N)ncnc98)ccc7C6)cn5)CC4)nc3)[C@H](OC)C2)CC(=O)[C@H](C)/C=C(\C)[C@@H](O)[C@@H](OC)C(=O)[C@H](C)C[C@H](C)/C=C/C=C/C=C/1C` [Example 46] are not above 1 nM, not above 3.16 nM and 3.16 to 31.6 nM.
For the compound `CO[C@H]1C[C@@H]2CC[C@@H](C)[C@@](O)(O2)C(=O)C(=O)N2CCCC[C@H]2C(=O)O[C@H]([C@H](C)C[C@@H]2CC[C@@H](OC(=O)NCCOCCOCCOCCOCCC(=O)NCc3cnc(N4CCN(c5ncc(C(=O)NCCCCn6nc(-c7cnc8[nH]ccc8c7)c7c(N)ncnc76)cn5)CC4)nc3)[C@H](OC)C2)CC(=O)[C@H](C)/C=C(\C)[C@@H](O)[C@@H](OC)C(=O)[C@H](C)C[C@H](C)/C=C/C=C/C=C/1C` [Example 47], the IC50 in test [1] was not above 1 nM; in test [2], not above 3.16 nM; in test [3] it was 3.16 to 31.6 nM.
As for `CO[C@H]1C[C@@H]2CC[C@@H](C)[C@@](O)(O2)C(=O)C(=O)N2CCCC[C@H]2C(=O)O[C@H]([C@H](C)C[C@@H]2CC[C@@H](OC(=O)NCCOCCOCCOCCOCCOCCOCCC(=O)N3CCC(N4CCC(C(=O)N5CCc6cc(Cn7nc(-c8ccc9oc(N)nc9c8)c8c(N)ncnc87)ccc6C5)CC4)CC3)[C@H](OC)C2)CC(=O)[C@H](C)/C=C(\C)[C@@H](O)[C@@H](OC)C(=O)[C@H](C)C[C@H](C)/C=C/C=C/C=C/1C` [Example 48], the results for the IC50 in test [1], in test [2] and in test [3] were not above 1 nM, not above 3.16 nM and 3.16 to 31.6 nM, respectively.
In the case of `CO[C@H]1C[C@@H]2CC[C@@H](C)[C@@](O)(O2)C(=O)C(=O)N2CCCC[C@H]2C(=O)O[C@H]([C@H](C)C[C@@H]2CC[C@@H](OC(=O)NCCOCCOCCOCCOCCC(=O)NCc3cnc(N4CCN(c5ncc(C(=O)N6CCc7cc(Cn8nc(-c9ccc%10oc(N)nc%10c9)c9c(N)ncnc98)ccc7C6)cn5)CC4)nc3)[C@H](OC)C2)C[C@@H](O)[C@H](C)/C=C(\C)[C@@H](O)[C@@H](OC)C(=O)[C@H](C)C[C@H](C)/C=C/C=C/C=C/1C` [Example 49], the IC50 in test [1] is not above 1 nM; in test [2], not above 3.16 nM; in test [3], 3.16 to 31.6 nM.
Take `CO[C@H]1C[C@@H]2CC[C@@H](C)[C@@](O)(O2)C(=O)C(=O)N2CCCC[C@H]2C(=O)O[C@H]([C@H](C)C[C@@H]2CC[C@@H](OC(=O)NCCOCCOCCOCCOCCC(=O)NCc3cnc(N4CCN(c5ncc(C(=O)N6CCc7cc(Cn8nc(-c9ccc%10oc(N)nc%10c9)c9c(N)ncnc98)ccc7C6)cn5)CC4)nc3)[C@H](OC)C2)C[C@@H](OC)[C@H](C)/C=C(\C)[C@@H](O)[C@@H](OC)C(=O)[C@H](C)C[C@H](C)/C=C/C=C/C=C/1C` [Example 50]: the IC50 was not above 1 nM in test [1], not above 3.16 nM in test [2] and 31.6 to 1000 nM in test [3].
